From patent publication US20040185430A1, “Process for evaluating the cosmetic or dermatological activity of a product and use of plant material” (priority 2002, published 2004)

Tests used:
[1] = system: Ficus; assay: Moisturizing effect, CM820 corneometer, Ficus leaves; conditions: Ficus leaf; 4 mg/cm2 topical; T 2 hours vs T0, corrected for control
Description: (§1) Measurements were carried out at approximately 22° C. and a relative humidity ranging from 53% to 67%. Plants: 2 samples per product, measured at intervals of 24 hours. Application of the formulations over the whole of the vernicose (upper) surface. One leaf per formulation+one control leaf. […] Application of the formulations at the rate of 4 mg/cm^2 (search for the direction of the action and not for the performance of the product). Moisturizing—Measurement with a CM820 corneometer of the mean value of 5 determinations. Measurements at: T0: reference value before application of the formulations. T 2 hours for the active principles (single measurement after observation of appearance of cuts on the leaves brought about by the measuring pressure of the corneometer). T 1 hour and T 4 hours for the commercial formulations. The values are the mean of the measurements at Ti divided by those at TO corrected for the variations in the control regions.

[2] = system: Ficus; assay: Barrier effect, insensible water loss (IWL), Dermalab, Ficus leaves; conditions: Ficus leaf; 4 mg/cm2 topical; T 2 hours vs T0, corrected for control
Description: (§2) Measurements were carried out at approximately 22° C. and a relative humidity ranging from 53% to 67%. Plants: 2 samples per product, measured at intervals of 24 hours. Application of the formulations over the whole of the vernicose (upper) surface. One leaf per formulation+one control leaf. […] Application of the formulations at the rate of 4 mg/cm^2 (search for the direction of the action and not for the performance of the product). The plant and human models and the products tested were the same as in Example 1. The IWL (insensible water loss) measurements were carried out according to the same protocol as above. IWL: Measurement with a Dermalab (vertical probe in contact with the measurement region, under minimum pressure). For the plants, a glass sheet was placed under the measurement region. 2 series of consecutive measurements of 25 values were conducted. The values are the mean of the measurements at Ti divided by those at T0 corrected for the variations in the control regions.

[3] = system: Syngonium; assay: Barrier effect, insensible water loss (IWL), Dermalab, Syngonium leaves; conditions: Syngonium leaf; 4 mg/cm2 topical; T 2 hours vs T0, corrected for control
Description: as §2

[4] = system: Spatyphillum; assay: Moisturizing effect, CM820 corneometer, Spatyphillum leaves; conditions: Spatyphillum leaf; 4 mg/cm2 topical; T 2 hours vs T0, corrected for control
Description: as §1

[5] = system: Man; assay: Barrier effect, insensible water loss (IWL), Dermalab, human model (inner forearm); assay type: in vivo; conditions: 4 mg/cm2 topical, T 2 hours vs T0, corrected for control region
Description: 2) To measure the moisturizing and the barrier effects, the human models (2 male volunteers and 2 female volunteers) took part in the tests and measurements under environmental conditions which were also controlled. Measurements were carried out at approximately 22° C. and a relative humidity ranging from 53% to 67%. Human beings: 4 models per product. Application to an inner region of the arm. Three regions of measurements, including a control, on the inner part of each forearm were conducted. The models were kept calm under climate-controlled measuring conditions for 15 minutes before each series of measurements. Application of each formulation over an area of 16 cm^2. Application of the formulations at the rate of 4 mg/cm^2 (search for the direction of the action and not for the performance of the product). The plant and human models and the products tested were the same as in Example 1. The IWL (insensible water loss) measurements were carried out according to the same protocol as above. IWL: Measurement with a Dermalab (vertical probe in contact with the measurement region, under minimum pressure). For the plants, a glass sheet was placed under the measurement region. 2 series of consecutive measurements of 25 values were conducted. The values are the mean of the measurements at Ti divided by those at T0 corrected for the variations in the control regions.

[6] = system: Potato, BF15; assay: Barrier effect, insensible water loss (IWL), Dermalab, potato model; conditions: 4 mg/cm2 topical, T 2 hours vs T0, corrected for control region
Description: (§3) Measurements were carried out at approximately 22° C. and a relative humidity ranging from 53% to 67%. Fruits and vegetables: 2 samples per product, measured at intervals of 24 hours. Application to regions of 4 cm^2. A control region on each sample. Application of the formulations at the rate of 4 mg/cm^2 (search for the direction of the action and not for the performance of the product). The plant and human models and the products tested were the same as in Example 1. The IWL (insensible water loss) measurements were carried out according to the same protocol as above. IWL: Measurement with a Dermalab (vertical probe in contact with the measurement region, under minimum pressure). For the plants, a glass sheet was placed under the measurement region. 2 series of consecutive measurements of 25 values were conducted. The values are the mean of the measurements at Ti divided by those at T0 corrected for the variations in the control regions.

[7] = system: Carrot; assay: Moisturizing effect, CM820 corneometer, carrot model; conditions: 4 mg/cm2 topical, T 2 hours vs T0, corrected for control region
Description: (§4) Measurements were carried out at approximately 22° C. and a relative humidity ranging from 53% to 67%. Fruits and vegetables: 2 samples per product, measured at intervals of 24 hours. Application to regions of 4 cm^2. A control region on each sample. Application of the formulations at the rate of 4 mg/cm^2 (search for the direction of the action and not for the performance of the product). Moisturizing—Measurement with a CM820 corneometer of the mean value of 5 determinations. Measurements at: T0: reference value before application of the formulations. T 2 hours for the active principles (single measurement after observation of appearance of cuts on the leaves brought about by the measuring pressure of the corneometer). T 1 hour and T 4 hours for the commercial formulations. The values are the mean of the measurements at Ti divided by those at TO corrected for the variations in the control regions.

[8] = system: Spatyphillum; assay: Barrier effect, insensible water loss (IWL), Dermalab, Spatyphillum leaves; conditions: Spatyphillum leaf; 4 mg/cm2 topical; T 2 hours vs T0, corrected for control
Description: as §2

[9] = system: Potato, BF15; assay: Moisturizing effect, CM820 corneometer, potato model; conditions: 4 mg/cm2 topical, T 2 hours vs T0, corrected for control region
Description: as §4

[10] = system: Carrot; assay: Barrier effect, insensible water loss (IWL), Dermalab, carrot model; conditions: 4 mg/cm2 topical, T 2 hours vs T0, corrected for control region
Description: as §3

[11] = system: Syngonium; assay: Moisturizing effect, CM820 corneometer, Syngonium leaves; conditions: Syngonium leaf; 4 mg/cm2 topical; T 2 hours vs T0, corrected for control
Description: as §1

[12] = system: Apples, Golden Delicious; assay: Moisturizing effect, CM820 corneometer, apple model; conditions: 4 mg/cm2 topical, T 2 hours vs T0, corrected for control region
Description: as §4

[13] = system: Man; assay: Moisturizing effect, CM820 corneometer, human model (inner forearm); assay type: in vivo; conditions: 4 mg/cm2 topical, T 2 hours vs T0, corrected for control region
Description: 2) To measure the moisturizing and the barrier effects, the human models (2 male volunteers and 2 female volunteers) took part in the tests and measurements under environmental conditions which were also controlled. Measurements were carried out at approximately 22° C. and a relative humidity ranging from 53% to 67%. Human beings: 4 models per product. Application to an inner region of the arm. Three regions of measurements, including a control, on the inner part of each forearm were conducted. The models were kept calm under climate-controlled measuring conditions for 15 minutes before each series of measurements. Application of each formulation over an area of 16 cm^2. Application of the formulations at the rate of 4 mg/cm^2 (search for the direction of the action and not for the performance of the product). Moisturizing—Measurement with a CM820 corneometer of the mean value of 5 determinations. Measurements at: T0: reference value before application of the formulations. T 2 hours for the active principles (single measurement after observation of appearance of cuts on the leaves brought about by the measuring pressure of the corneometer). T 1 hour and T 4 hours for the commercial formulations. The values are the mean of the measurements at Ti divided by those at TO corrected for the variations in the control regions.

[14] = system: Apples, Golden Delicious; assay: Barrier effect, insensible water loss (IWL), Dermalab, apple model; conditions: 4 mg/cm2 topical, T 2 hours vs T0, corrected for control region
Description: as §3

SMILES	Variation T 2 hours/T0 Corneo [1] [%]	Variation T 2 hours/T0 IWL [2] [%]	Variation T 2 hours/T0 IWL [3] [%]	Variation T 2 hours/T0 Corneo [4] [%]	Variation T 2 hours/T0 IWL [5] [%]	Variation T 2 hours/T0 IWL [6] [%]	Variation T 2 hours/T0 Corneo [7] [%]	Variation T 2 hours/T0 IWL [8] [%]	Variation T 2 hours/T0 Corneo [9] [%]	Variation T 2 hours/T0 IWL [10] [%]	Variation T 2 hours/T0 Corneo [11] [%]	Variation T 2 hours/T0 Corneo [12] [%]	Variation T 2 hours/T0 Corneo [13] [%]	Variation T 2 hours/T0 IWL [14] [%]
OCC(O)CO [Glycerol]	47	183	40	52	55	188	62	14	69	1	38	16	22	–
CCCCCCCCCCCCOP(=O)(O)O [Surfactant, Lauryl phosphate]	20	–	104	30	19	48	271	13	1144	2	48	2	5	0
